Consider 1 compound from patent US20240050727A1, “DEVICES FOR FORMING IN SITU MICRONEEDLES AND METHODS THEREOF” (University of Connecticut, priority 2022, published 2024).

Structures are written as SMILES. “Also recorded” adds a separate entry of the source.

The test system of the assay is C. albicans. Put plainly: Antifungal activity in 3D culture model (C. albicans 3D fungal biofilms in CHROMagar). The class given is cell-based. The settings on record: for superficial regrowth of preformed fungal biofilm: t=48 h preformed biofilm, monitored for 48 hr. How it is done:
Antifungal activity. The antifungal activity was performed using an in-lab developed 3D culture model. C. Albicans was seeded at a density of 10^7 cells/mL and cultured for 48 h on CHROMagar. The 3D culture gels were treated with PBS and Caspofungin either topically or using the in-situ microneedle device and methodology. Samples were cut for in-depth imaging after 48 h of treatment and fungal inhibition was evaluated. Experiments were performed to assess the feasibility of the disclosed device in the treatment of infection. 10^6 cells/ml of C. albicans were inoculated in liquid CHROMagar™ and allowed to form 3D fungal biofilms. PBS or 32 μg/ml of Caspofungin (CPF) was applied topically and via a microneedling device immediately after the agar solidified (t=0 h) or 48 h after biofilm growth (t=48 h). The growth and distribution of C. albicans was monitored for 48 hr.

Turning to `CC[C@H](C)C[C@H](C)CCCCCCCCC(=O)N[C@H]1C[C@@H](O)[C@@H](NCCN)NC(=O)[C@@H]2[C@@H](O)CCN2C(=O)[C@H]([C@H](O)CCN)NC(=O)[C@H]([C@H](O)[C@@H](O)c2ccc(O)cc2)NC(=O)[C@@H]2C[C@@H](O)CN2C(=O)[C@H]([C@@H](C)O)NC1=O` [CPF, Caspofungin], the “3D growth of fungal biofilm (fluorescence images of slices)” value is recorded as “reduced the 3D growth” (32 μg/ml CPF administered by drop) and “reduced the 3D growth” (32 μg/ml CPF administered by microneedle system). Moreover, the “superficial regrowth of preformed fungal biofilm” value runs as follows: (32 μg/ml CPF applied topically via drop) “not able to regrow on the surface; also recorded: prevention of superficial growth”; (32 μg/ml CPF applied via microneedle system) “not able to regrow on the surface; also recorded: prevention of superficial growth”. For the same compound, the “fungal biofilm 3D growth at t=48 h” value (32 μg/ml CPF, microneedling system vs drop, applied 48 h after biofilm growth) is recorded as “effective in reducing the fungal biofilm growth only when administered via the microneedling system; also recorded: reduced only when CPF was administered via microneedles”. For the same compound, the “overall biofilm thickness and biofilm growth at depth (calcofluor fluorescence signal)” value (CPF, microneedle delivery) was “reduces the overall biofilm thickness and biofilm growth at depths lower than 1 mm”.
